How the values were obtained:
[1] = Body weight in the comparative N87 study; format: in vivo, mouse (BALB/c-nu); conditions: 0.12mg i.v. (tail vein) once weekly for 6 weeks
HepG2 liver cancer = experiment: In-vivo efficacy study in the HepG2 mouse liver cancer model (drug of Example 6); design: species or system mouse (BALB/cAnSlacNifdc-nu); conditions: for Tumor growth inhibition rate (TGI, %) at different days post-inoculation: 6 mg/kg (0.12 mg/mouse) i.v. (tail vein) once weekly
Description: • Species/strain: BALB/cAnSlacNifdc-nu • Sex: Male • Body weight: 16-18 g
1).Inoculation and grouping: For the HepG2 mouse liver cancer model, male BALB/cAnSlacNifdc-nu nude mice, weighing 16.0-18.0 g, were used.Under aseptic conditions, HepG2 tumor tissue was excised and cut into 2.0mm×2.0mm×2.0mm tumor blocks, which were uniformly implanted subcutaneously into the left axillary dorsal region of nude mice. The day of implantation was designated as Day 0 (D0).When the tumor volume reached approximately 250.0 mm^3 (D7), animals were randomized by tumor volume into three groups: A (control group), B, and C (treatment groups), with 8 animals per group.On the day of randomization, all animals began intravenous (tail-vein) dosing once weekly for a total of 3 administrations. 2.Dosing regimen: Table 37
Tumor size is measured twice per week using a vernier caliper. The long diameter (a) and short diameter (b) are recorded. Tumor volume is calculated as: V=0.5×a×b^2.
RTV = Vt /V0 , [formula] where V0 is the tumor volume at grouping/first dosing (D0), and Vt is the tumor volume at each measurement time point.
6).Tumor weight: At the end of the study (D23), the remaining animals were euthanized by cervical dislocation. Tumors were excised, weighed, and photographed.

[2] = Body weight in the A549 study of the Example 3 drug; format: in vivo, mouse (BALB/c-nu)
Experimental: Body weight is measured twice per week.Data are recorded and changes analyzed.

N87 gastric cancer = experiment: In vivo antitumor efficacy in an N87 gastric cancer mouse model (drug of Example 5); design: species or system mouse (BALB/c nude); conditions: 0.12mg i.v. (tail vein) once every 5 days, 5 administrations
Experimental: • 1. Cell culture and preparation: Thaw cells and seed into the corresponding medium (RPMI-1640 basal medium + 10% FBS + 1% penicillin/streptomycin [P/S]).
• a) Discard the culture medium and gently rinse the cells with PBS twice. • b) Add an appropriate volume of 0.25% trypsin, digest in a 37 °C incubator for about 1-2 min until cells visibly round up; then add complete medium (RPMI-1640 + 10% FBS + 1% P/S) to neutralize the trypsin.Gently pipette to detach cells and subculture at the desired split ratio. • c) Split ratio: 1: 2-1: 4; the split ratio used in this experiment is 1: 3. • d) Passage frequency: Every 2-3 days, depending on seeding density and growth.
• a) Harvest cells in logarithmic growth phase (~80-90% confluence recommended); • b) After trypsinization, add complete medium to terminate digestion; collect the suspension into centrifuge tubes and centrifuge at 1, 000 rpm for 5 min; • c) Wash the cell pellet twice with pre-chilled PBS and centrifuge each time; • d) Resuspend the pellet in PBS or serum-free medium to a final concentration of 2 × 10^7 cells/mL.
• Injection site: Subcutaneous, right axillary-dorsal region. • Inoculum: 3 × 10^6 cells/mouse; 30 mice inoculated. • Injection volume: 0.1 mL. • Method: Tumor cell inoculation.
Thaw and expand N87 cells to the required quantity; adjust the cell concentration to 3 × 10^7 cells/mL with sterile PBS and keep on ice until use. Using a single-use sterile 1 mL syringe, draw 0.1 mL of the cell suspension and inject subcutaneously into the right axillary-dorsal region of each mouse. The day of inoculation is designated Day 0 (D0).
• a)lmmediately before injection, thoroughly disperse the tumor cell suspension by pipetting to prevent cell clumping, which can reduce viability; • b)Restrain the mouse by grasping the dorsal neck skin with the thumb and forefinger while holding the tail with the little finger; • c)Using a disposable 1 mL syringe, inject the suspension subcutaneously; advance the needle slightly deeper under the skin (approximately 1 cm) to minimize leakage of the suspension from the needle tract;
Tumor size is measured three times per week using a vernier caliper. The long diameter (a) and the short diameter (b) are recorded. Tumor volume is calculated as: V=0.5×a×b^2.
RTV is calculated as: RTV = Vt/V0, where V0 is the tumor volume at grouping and initial dosing (D0), and Vt is the tumor volume at each measurement time point.
IRTW (%) = (Wcontrol group−Wtreatment group)/Wcontrol group × 100, [formula] where W denotes tumor weight.IRTW%>60% is considered effective.

U251-RFP human glioma = experiment: In-vivo efficacy study in the U251-RFP human glioma orthotopic mouse model (drug of Example 9); design: species or system mouse (BALB/c nude); conditions: 6mg/Kg i.v. (tail vein) twice weekly, 8 administrations
Description: 2.Dosing regimen: Table 41

[3] = tested on: N87 human gastric carcinoma; experiment: Comparative in-vivo efficacy test in the N87 mouse gastric carcinoma model (drugs of Example 5 and Example 7); design: species or system mouse (BALB/c-nu)
Description: • Species/strain: BALB/c nude (BALB/c-nu) • Age: 6-8 weeks • Sex: Male • Body weight: 17-19 g
1).Inoculation and grouping: For the N87 human gastric carcinoma model, male BALB/c-nu mice (17.0-19.0 g) were used.Under aseptic conditions, N87 tumor tissue was excised and cut into 2.0 mm × 2.0 mm × 2.0 mm tumor blocks, which were implanted subcutaneously into the left axillary dorsal region of each nude mouse. The day of implantation was designated as Day 0 (D0).When tumor volume reached approximately 250.0 mm^3 (D6), animals with poor tumor take were excluded, and the remaining animals were randomized into groups according to tumor volume; dosing commenced on the day of randomization. 2).Dosing regimen: Table 27
Tumor size is measured three times per week using a vernier caliper. The long diameter (a) and short diameter (b) are recorded. Tumor volume is calculated as: V=0.5×a×b^2
RTV = Vt /V0 , [formula] where V0 is the tumor volume at grouping/first dosing (D0) and Vt is the tumor volume at each measurement time point.

[4] = 41 days post-N87 inoculation, 0.12mg i.v. (tail vein) once weekly for 6 weeks

Compound: COc1cccc2c1C(=O)c1c(O)c3c(c(O)c1C2=O)C[C@@](O)(C(=O)CO)C[C@@H]3O[C@H]1C[C@H](N)[C@@H](O)[C@H](C)O1 [Epirubicin drug substance (API), Epirubicin]
- Body-weight difference (g) between Day 41 and Day 6 [1]: 3.29 g
- Tumor weight inhibition rate, IRTW (%) (HepG2 liver cancer; 23 days post-HepG2 inoculation, 6 mg/kg (0.12 mg/mouse) i.v. once weekly, 3 administrations): 25.20%
- Tumor growth inhibition rate (TGI, %) at different days post-inoculation (HepG2 liver cancer; Day 10, 3 administrations): 16.33%
- Tumor growth inhibition rate (TGI, %) at different days post-inoculation (HepG2 liver cancer; Day 14, 3 administrations): 36.16%
- Tumor growth inhibition rate (TGI, %) at different days post-inoculation (HepG2 liver cancer; Day 21, 3 administrations): 24.72%
- Tumor growth inhibition rate (TGI, %) at different days post-inoculation (HepG2 liver cancer; Day 23, 3 administrations): 22.08%
- tumor growth inhibition rate (calculated based on tumor weight and tumor volume) (HepG2 liver cancer; end of the study (D23), intravenous injection): less than 60%
- Body-weight difference (g) between Day 32 and Day 5 ([2]; 0.08mg i.v. (tail vein) twice weekly for 5 weeks): 6.3 g
- Body-weight difference (g) between Day 32 and Day 5 ([2]; 0.12mg i.v. (tail vein) twice weekly for 5 weeks): 6.1 g
- Body-weight difference (g) between Day 32 and Day 5 ([2]; 0.14mg i.v. (tail vein) twice weekly for 5 weeks): 0.2 g
- Inhibition rate (%) at different post-inoculation days (N87 gastric cancer; Day 9): 17.5%
- Inhibition rate (%) at different post-inoculation days (N87 gastric cancer; Day 11): 3.5%
- Inhibition rate (%) at different post-inoculation days (N87 gastric cancer; Day 13): 10.2%
- Inhibition rate (%) at different post-inoculation days (N87 gastric cancer; Day 16): 24.1%
- Inhibition rate (%) at different post-inoculation days (N87 gastric cancer; Day 18): 32.9%
- Inhibition rate (%) at different post-inoculation days (N87 gastric cancer; Day 20): 36.4%
- Inhibition rate (%) at different post-inoculation days (N87 gastric cancer; Day 23): 34.6%
- Tumor weight (N87 gastric cancer; end of study): 0.1751 ± 0.13 g
- IRTW% (N87 gastric cancer; inhibition rate of tumor weight): 71.987%
- Tumor growth inhibition rate (TGI, %) at different days post-inoculation (U251-RFP human glioma; Day 6): 35.8%
- Tumor growth inhibition rate (TGI, %) at different days post-inoculation (U251-RFP human glioma; Day 10): -3.9%
- Tumor growth inhibition rate (TGI, %) at different days post-inoculation (U251-RFP human glioma; Day 13): -7.1%
- Tumor growth inhibition rate (TGI, %) at different days post-inoculation (U251-RFP human glioma; Day 17): 19.4%
- Tumor weight [3, 4]: 0.62 ± 0.55 g
- Tumor-weight inhibition rate, IRTW (%) [3, 4]: 51.74%
- Tumor growth inhibition rate (TGI, %) at different post-inoculation days ([3]; Day 10, 0.12mg i.v. (tail vein) once weekly for 6 weeks): 41.17%
- Tumor growth inhibition rate (TGI, %) at different post-inoculation days ([3]; Day 13, 0.12mg i.v. (tail vein) once weekly for 6 weeks): 34.62%
- Tumor growth inhibition rate (TGI, %) at different post-inoculation days ([3]; Day 17, 0.12mg i.v. (tail vein) once weekly for 6 weeks): 37.16%
- Tumor growth inhibition rate (TGI, %) at different post-inoculation days ([3]; Day 20, 0.12mg i.v. (tail vein) once weekly for 6 weeks): 35.17%
- Tumor growth inhibition rate (TGI, %) at different post-inoculation days ([3]; Day 24, 0.12mg i.v. (tail vein) once weekly for 6 weeks): 43.86%
- Tumor growth inhibition rate (TGI, %) at different post-inoculation days ([3]; Day 27, 0.12mg i.v. (tail vein) once weekly for 6 weeks): 43.86%
- Tumor growth inhibition rate (TGI, %) at different post-inoculation days ([3]; Day 31, 0.12mg i.v. (tail vein) once weekly for 6 weeks): 44.19%
- Tumor growth inhibition rate (TGI, %) at different post-inoculation days ([3]; Day 34, 0.12mg i.v. (tail vein) once weekly for 6 weeks): 42.97%
- Tumor growth inhibition rate (TGI, %) at different post-inoculation days ([3]; Day 38, 0.12mg i.v. (tail vein) once weekly for 6 weeks): 40.97%
- Tumor growth inhibition rate (TGI, %) at different post-inoculation days ([3]; Day 41, 0.12mg i.v. (tail vein) once weekly for 6 weeks): 51.83%
- tumor growth inhibition rate calculated from tumor weight and tumor volume ([3]; end of the study (D41), tail-vein injection): < 60%

From patent EP4744680A1, “TARGETED CHEMICAL DRUG AND PREPARATION METHOD THEREFOR, PHARMACEUTICAL COMPOSITION, AND USE OF TARGETED CHEMICAL DRUG” (Bai Yao Zhi Da (Beijing) Nanobio Technology Co., Ltd., priority 2023, dated 2025)
